Assay results: ChEMBL document CHEMBL4630905 (2021)
Active and inactive are the calls of the source. The calls are words filed in the database; no cut-off is given here.

What was measured:
[1] = target: 5-hydroxytryptamine receptor 1D (Homo sapiens) (UniProt P28221); details: Compound concentration 10.0 uM
[2] = target: D(2) dopamine receptor (Homo sapiens) (UniProt P14416); details: Compound concentration 10.0 uM
[3] = target: Histamine H1 receptor (Homo sapiens) (UniProt P35367); details: Compound concentration 10.0 uM
[4] = target: D(1A) dopamine receptor (Homo sapiens) (UniProt P21728); details: Compound concentration 10.0 uM
[5] = target: Interleukin-6 (Homo sapiens, UniProt P05231); assay: In vitro inhibition of IL-6 in Lipopolysaccharide-stimulated human whole blood; type: tissue-based
[6] = target: Beta-2 adrenergic receptor (Homo sapiens) (UniProt P07550); details: Compound concentration 10.0 uM
Chain of Beta-2 adrenergic receptor (Homo sapiens) (P07550 whole entry, looked up): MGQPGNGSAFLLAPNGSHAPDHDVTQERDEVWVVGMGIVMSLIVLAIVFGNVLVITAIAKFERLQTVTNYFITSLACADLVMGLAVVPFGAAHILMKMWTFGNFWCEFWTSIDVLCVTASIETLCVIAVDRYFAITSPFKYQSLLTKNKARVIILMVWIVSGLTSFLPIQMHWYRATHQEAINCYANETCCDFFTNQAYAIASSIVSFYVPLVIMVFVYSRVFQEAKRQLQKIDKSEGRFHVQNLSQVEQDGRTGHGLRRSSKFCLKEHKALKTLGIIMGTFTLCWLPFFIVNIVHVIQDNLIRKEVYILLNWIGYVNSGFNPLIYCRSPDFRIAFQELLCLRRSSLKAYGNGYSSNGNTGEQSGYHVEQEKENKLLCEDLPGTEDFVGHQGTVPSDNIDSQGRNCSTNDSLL

[7] = tested on: MV4-11; assay: Proliferation assay (MV-4−11 cells); type: functional, cell-based; details: Homo sapiens
[8] = target: Transcription intermediary factor 1-alpha (Homo sapiens, UniProt O15164); assay: TRIM24 (TIF1alpha) (PHD & BD) DiscoverX BROMOscan
[9] = tested on: THP-1; assay: Proliferation assay (THP-1 cells); type: functional, cell-based; details: Homo sapiens
[10] = target: Sodium-dependent noradrenaline transporter (Homo sapiens) (UniProt P23975); details: Compound concentration 10.0 uM
[11] = target: Protein polybromo-1 (Homo sapiens, UniProt Q86U86); assay: PBRM1 (BD2) DiscoverX BROMOscan
[12] = target: Tumor necrosis factor (Homo sapiens, UniProt P01375); assay: In vitro inhibition of TNFalpha in Lipopolysaccharide-stimulated human whole blood; type: tissue-based
[13] = target: Bromodomain and PHD finger-containing protein 3 (Homo sapiens, UniProt Q9ULD4); assay: BRPF3 DiscoverX BROMOscan
[14] = target: T1, Bromodomain testis-specific protein (Homo sapiens, UniProt Q58F21); assay: BRDT (1,2) DiscoverX BROMOscan
[15] = target: T2, Bromodomain-containing protein 2 (Homo sapiens, UniProt P25440); assay: BET mutant TR-FRET assay (BRD2 BD2)
T2 sequence (P25440 whole entry, looked up, change not shown): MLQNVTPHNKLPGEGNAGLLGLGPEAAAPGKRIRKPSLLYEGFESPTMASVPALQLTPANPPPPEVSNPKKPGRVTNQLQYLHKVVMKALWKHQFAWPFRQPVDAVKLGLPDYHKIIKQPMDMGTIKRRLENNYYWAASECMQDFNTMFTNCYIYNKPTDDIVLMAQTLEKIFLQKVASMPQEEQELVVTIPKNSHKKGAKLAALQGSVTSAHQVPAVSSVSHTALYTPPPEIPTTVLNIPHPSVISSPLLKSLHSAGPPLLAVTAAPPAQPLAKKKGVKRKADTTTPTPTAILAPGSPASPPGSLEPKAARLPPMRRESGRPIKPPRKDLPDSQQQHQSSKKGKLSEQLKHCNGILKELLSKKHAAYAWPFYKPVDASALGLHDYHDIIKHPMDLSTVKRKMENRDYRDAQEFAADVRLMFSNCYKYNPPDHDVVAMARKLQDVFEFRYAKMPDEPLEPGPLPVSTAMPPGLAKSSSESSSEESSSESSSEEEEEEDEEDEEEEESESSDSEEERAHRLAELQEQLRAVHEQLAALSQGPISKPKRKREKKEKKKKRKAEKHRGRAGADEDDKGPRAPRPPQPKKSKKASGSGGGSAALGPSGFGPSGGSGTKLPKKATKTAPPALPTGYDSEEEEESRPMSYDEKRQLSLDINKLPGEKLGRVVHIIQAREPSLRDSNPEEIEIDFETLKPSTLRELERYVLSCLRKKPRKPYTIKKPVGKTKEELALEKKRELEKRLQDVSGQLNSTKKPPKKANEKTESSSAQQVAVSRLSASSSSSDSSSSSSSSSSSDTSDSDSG

[16] = target: T2, Bromodomain-containing protein 2; assay: BET mutant TR-FRET assay (BRD2 BD1)
[17] = target: 5-hydroxytryptamine receptor 1A (Homo sapiens) (UniProt P08908); details: Compound concentration 10.0 uM
[18] = target: Histone acetyltransferase KAT2B (Homo sapiens, UniProt Q92831); assay: PCAF DiscoverX BROMOscan
[19] = target: Sodium-dependent serotonin transporter (Homo sapiens) (UniProt P31645); details: Compound concentration 10.0 uM
[20] = target: 5-hydroxytryptamine receptor 2A (Homo sapiens) (UniProt P28223); details: Compound concentration 10.0 uM
[21] = target: 5-hydroxytryptamine receptor 5A (Homo sapiens) (UniProt P47898); details: Compound concentration 10.0 uM
[22] = target: Bromodomain adjacent to zinc finger domain protein 2B (Homo sapiens, UniProt Q9UIF8); assay: BAZ2B DiscoverX BROMOscan
[23] = species on record: Rattus norvegicus; details: Compound concentration 10.0 uM
[24] = target: Histamine H3 receptor (Homo sapiens) (UniProt Q9Y5N1); details: Compound concentration 10.0 uM
[25] = target: Peregrin (Homo sapiens, UniProt P55201); assay: BRPF1 DiscoverX BROMOscan
[26] = tested on: HL-60; assay: Proliferation assay (HL60 cells); type: functional, cell-based; details: Homo sapiens
[27] = target: Histone acetyltransferase KAT2A (Homo sapiens, UniProt Q92830); assay: GCN5L2 DiscoverX BROMOscan
[28] = target: Histone acetyltransferase p300 (Homo sapiens, UniProt Q09472); assay: EP300 DiscoverX BROMOscan
[29] = target: Sodium-dependent dopamine transporter (Homo sapiens) (UniProt Q01959); details: Compound concentration 10.0 uM
[30] = target: T1, Bromodomain testis-specific protein; assay: BET mutant TR-FRET assay (BRDT BD2)
[31] = target: D(1B) dopamine receptor (Homo sapiens) (UniProt P21918); details: Compound concentration 10.0 uM
[32] = target: Muscarinic acetylcholine receptor M2 (Homo sapiens) (UniProt P08172); details: Compound concentration 10.0 uM
[33] = target: 5-hydroxytryptamine receptor 2C (Homo sapiens) (UniProt P28335); details: Compound concentration 10.0 uM
[34] = target: Histamine H4 receptor (Homo sapiens) (UniProt Q9H3N8); details: Compound concentration 10.0 uM
[35] = target: SWI/SNF-related matrix-associated actin-dependent regulator of chromatin subfamily A member 2 (Homo sapiens, UniProt P51531); assay: SMARCA2 DiscoverX BROMOscan
[36] = target: Alpha-2A adrenergic receptor (Homo sapiens) (UniProt P08913); details: Compound concentration 10.0 uM
Chain of Alpha-2A adrenergic receptor (Homo sapiens) (P08913 whole entry): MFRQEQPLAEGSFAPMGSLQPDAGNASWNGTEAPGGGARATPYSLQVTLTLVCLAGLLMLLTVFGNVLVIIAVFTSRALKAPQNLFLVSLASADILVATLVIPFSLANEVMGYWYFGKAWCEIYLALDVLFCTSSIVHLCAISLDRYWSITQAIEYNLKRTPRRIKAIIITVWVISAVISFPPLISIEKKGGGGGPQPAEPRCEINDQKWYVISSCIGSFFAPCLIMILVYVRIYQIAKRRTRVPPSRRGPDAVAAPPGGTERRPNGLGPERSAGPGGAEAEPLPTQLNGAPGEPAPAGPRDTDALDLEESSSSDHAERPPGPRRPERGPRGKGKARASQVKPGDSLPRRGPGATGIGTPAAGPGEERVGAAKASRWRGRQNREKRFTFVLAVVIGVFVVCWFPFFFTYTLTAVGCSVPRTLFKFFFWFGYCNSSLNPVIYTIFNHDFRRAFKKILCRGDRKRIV

[37] = target: T3, Bromodomain-containing protein 3 (Homo sapiens, UniProt Q15059); assay: BET mutant TR-FRET assay (BRD3 BD2)
T3 sequence (Q15059 2-726 limits assumed, change not shown): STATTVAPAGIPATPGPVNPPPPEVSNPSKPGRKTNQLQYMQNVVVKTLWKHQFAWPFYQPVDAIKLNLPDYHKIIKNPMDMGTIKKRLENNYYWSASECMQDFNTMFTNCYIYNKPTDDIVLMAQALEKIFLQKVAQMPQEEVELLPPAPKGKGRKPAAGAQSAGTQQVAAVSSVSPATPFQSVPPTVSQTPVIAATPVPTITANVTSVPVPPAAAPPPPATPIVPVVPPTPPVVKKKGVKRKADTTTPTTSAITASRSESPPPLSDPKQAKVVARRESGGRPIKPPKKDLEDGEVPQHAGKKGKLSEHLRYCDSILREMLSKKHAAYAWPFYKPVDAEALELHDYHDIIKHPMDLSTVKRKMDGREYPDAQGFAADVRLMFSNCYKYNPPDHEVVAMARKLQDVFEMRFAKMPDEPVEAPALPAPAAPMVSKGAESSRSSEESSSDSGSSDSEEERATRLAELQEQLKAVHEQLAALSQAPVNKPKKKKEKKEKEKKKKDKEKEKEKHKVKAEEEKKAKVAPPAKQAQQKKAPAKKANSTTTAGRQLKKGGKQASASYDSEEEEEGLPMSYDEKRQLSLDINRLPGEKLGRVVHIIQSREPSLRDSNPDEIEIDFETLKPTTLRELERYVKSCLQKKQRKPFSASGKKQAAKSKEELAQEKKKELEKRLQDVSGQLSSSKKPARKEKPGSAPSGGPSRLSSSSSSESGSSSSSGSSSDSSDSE

[38] = target: T3, Bromodomain-containing protein 3; assay: BET mutant TR-FRETassay (BRD3 BD1)
[39] = target: D(4) dopamine receptor (Homo sapiens, UniProt P21917); assay: GPCRScan assay: inhibition of D4; design: radioligand conc. used [nm] 0.6 – 1.7, parental cells Stable HEK
Chain of D(4) dopamine receptor (P21917 whole entry): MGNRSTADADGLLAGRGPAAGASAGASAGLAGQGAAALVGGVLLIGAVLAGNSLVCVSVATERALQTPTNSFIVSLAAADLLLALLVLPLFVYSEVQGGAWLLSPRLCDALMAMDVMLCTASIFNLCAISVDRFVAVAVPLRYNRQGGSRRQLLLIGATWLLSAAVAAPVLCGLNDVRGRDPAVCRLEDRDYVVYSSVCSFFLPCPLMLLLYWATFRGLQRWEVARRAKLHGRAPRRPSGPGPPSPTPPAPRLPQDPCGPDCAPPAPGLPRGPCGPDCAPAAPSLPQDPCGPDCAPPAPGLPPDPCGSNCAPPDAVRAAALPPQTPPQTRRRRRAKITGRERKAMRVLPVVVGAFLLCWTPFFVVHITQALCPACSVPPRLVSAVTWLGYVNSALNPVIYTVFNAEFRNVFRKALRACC

[40] = target: D(4) dopamine receptor (Homo sapiens) (UniProt P21917); details: Compound concentration 10.0 uM
Chain of D(4) dopamine receptor (Homo sapiens) (P21917 whole entry): as above

[41] = target: Bromodomain and WD repeat-containing protein 1 (Homo sapiens, UniProt Q9NSI6); assay: WDR9 (BD2) DiscoverX BROMOscan
[42] = target: C-C motif chemokine 2 (Homo sapiens, UniProt P13500); assay: In vitro inhibition of MCP-1 in Lipopolysaccharide-stimulated human whole blood; type: tissue-based
[43] = target: Bromodomain-containing protein 9 (Homo sapiens, UniProt Q9H8M2); assay: BRD9 DiscoverX BROMOscan
[44] = target: CREB-binding protein (Homo sapiens, UniProt Q92793); assay: CREBBP DiscoverX BROMOscan
[45] = target: T4, GABA-A receptor; anion channel (Rattus norvegicus) (UniProt O09028+P15431+P18506+P18508+P19969+P20236+P23574+P23576+P28471+P28473+P30191+P62813+P63079+P63138+Q91ZM7+Q9ES14); details: Compound concentration 10.0 uM
[46] = target: Chromatin remodeling regulator CECR2 (Homo sapiens, UniProt Q9BXF3); assay: CECR2 DiscoverX BROMOscan
[47] = target: Beta-1 adrenergic receptor (Homo sapiens) (UniProt P08588); details: Compound concentration 10.0 uM
[48] = target: Alpha-1A adrenergic receptor (Homo sapiens) (UniProt P35348); details: Compound concentration 10.0 uM
[49] = target: Bromodomain-containing protein 1 (Homo sapiens, UniProt O95696); assay: BRD1 DiscoverX BROMOscan
[50] = target: SWI/SNF-related matrix-associated actin-dependent regulator of chromatin subfamily A member 4 (Homo sapiens, UniProt P51532); assay: SMARCA4 DiscoverX BROMOscan
[51] = target: D(3) dopamine receptor (Homo sapiens) (UniProt P35462); details: Compound concentration 10.0 uM
[52] = target: Alpha-1B adrenergic receptor (Homo sapiens) (UniProt P35368); details: Compound concentration 10.0 uM
[53] = target: T1, Bromodomain testis-specific protein; assay: BET mutant TR-FRET assay (BRDT BD1)
[54] = target: Alpha-1D adrenergic receptor (Homo sapiens) (UniProt P25100); details: Compound concentration 10.0 uM
[55] = target: Histamine H2 receptor (Homo sapiens) (UniProt P25021); details: Compound concentration 10.0 uM
[56] = target: 5-hydroxytryptamine receptor 3A (Homo sapiens) (UniProt P46098); details: Compound concentration 10.0 uM
[57] = target: Muscarinic acetylcholine receptor M1 (Homo sapiens) (UniProt P11229); details: Compound concentration 10.0 uM
Chain of Muscarinic acetylcholine receptor M1 (Homo sapiens) (P11229 whole entry): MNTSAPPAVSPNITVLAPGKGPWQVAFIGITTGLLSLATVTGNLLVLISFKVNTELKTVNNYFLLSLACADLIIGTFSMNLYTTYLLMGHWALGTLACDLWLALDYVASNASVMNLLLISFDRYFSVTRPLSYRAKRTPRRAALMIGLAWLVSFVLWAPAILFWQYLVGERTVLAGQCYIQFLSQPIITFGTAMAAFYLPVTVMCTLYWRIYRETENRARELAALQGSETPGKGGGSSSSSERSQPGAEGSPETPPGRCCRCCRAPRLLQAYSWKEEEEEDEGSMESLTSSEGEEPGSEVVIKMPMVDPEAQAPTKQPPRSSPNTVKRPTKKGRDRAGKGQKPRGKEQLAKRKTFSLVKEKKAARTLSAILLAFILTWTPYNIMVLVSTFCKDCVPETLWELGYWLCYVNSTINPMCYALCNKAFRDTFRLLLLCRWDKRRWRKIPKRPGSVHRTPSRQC

[58] = target: Sigma intracellular receptor 2 (Homo sapiens) (UniProt Q5BJF2); details: Compound concentration 10.0 uM
[59] = target: Muscarinic acetylcholine receptor M5 (Homo sapiens) (UniProt P08912); details: Compound concentration 10.0 uM
[60] = target: Alpha-2C adrenergic receptor (Homo sapiens) (UniProt P18825); details: Compound concentration 10.0 uM
[61] = target: T5, Bromodomain-containing protein 8 (Homo sapiens, UniProt Q9H0E9); assay: BRD8 (BD2) DiscoverX BROMOscan
T5 sequence (Q9H0E9 whole entry): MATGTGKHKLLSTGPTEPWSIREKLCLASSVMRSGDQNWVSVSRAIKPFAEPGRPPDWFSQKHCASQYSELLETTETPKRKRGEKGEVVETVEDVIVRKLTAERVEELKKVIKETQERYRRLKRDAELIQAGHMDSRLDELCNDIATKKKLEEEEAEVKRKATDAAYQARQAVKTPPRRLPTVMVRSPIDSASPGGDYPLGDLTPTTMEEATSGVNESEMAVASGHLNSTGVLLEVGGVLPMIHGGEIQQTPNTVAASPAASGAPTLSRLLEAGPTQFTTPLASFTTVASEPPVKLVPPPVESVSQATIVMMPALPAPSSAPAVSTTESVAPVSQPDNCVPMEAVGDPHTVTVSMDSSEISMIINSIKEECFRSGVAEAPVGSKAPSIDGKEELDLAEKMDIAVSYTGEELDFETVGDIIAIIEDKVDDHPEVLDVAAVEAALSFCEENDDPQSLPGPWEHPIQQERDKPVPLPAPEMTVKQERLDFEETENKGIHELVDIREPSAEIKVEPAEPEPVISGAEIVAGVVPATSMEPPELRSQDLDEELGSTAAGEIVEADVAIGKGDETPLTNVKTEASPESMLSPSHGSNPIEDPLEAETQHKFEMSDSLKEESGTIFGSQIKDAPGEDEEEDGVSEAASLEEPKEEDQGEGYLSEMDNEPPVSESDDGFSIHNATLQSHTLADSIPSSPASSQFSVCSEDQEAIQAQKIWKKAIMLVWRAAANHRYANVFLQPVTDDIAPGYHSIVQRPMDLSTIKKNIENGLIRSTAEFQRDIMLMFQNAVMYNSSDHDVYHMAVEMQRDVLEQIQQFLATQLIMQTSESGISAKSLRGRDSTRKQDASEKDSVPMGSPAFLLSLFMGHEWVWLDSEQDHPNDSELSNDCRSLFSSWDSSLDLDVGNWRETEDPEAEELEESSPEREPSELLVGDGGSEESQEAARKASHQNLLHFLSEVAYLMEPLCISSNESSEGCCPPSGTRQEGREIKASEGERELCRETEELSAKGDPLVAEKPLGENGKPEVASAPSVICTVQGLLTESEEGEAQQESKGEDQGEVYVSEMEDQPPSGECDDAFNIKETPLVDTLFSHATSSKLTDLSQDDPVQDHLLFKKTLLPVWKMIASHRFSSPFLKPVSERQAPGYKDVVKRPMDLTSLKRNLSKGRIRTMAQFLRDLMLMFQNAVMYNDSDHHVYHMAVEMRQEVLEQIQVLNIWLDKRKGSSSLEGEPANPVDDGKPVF

[62] = target: Alpha-2B adrenergic receptor (Homo sapiens) (UniProt P18089); details: Compound concentration 10.0 uM
[63] = target: T4, GABA-A receptor; anion channel (Rattus norvegicus); details: Compound concentration 10.0 uM; remark: listed apart in the source
[64] = target: Beta-3 adrenergic receptor (Homo sapiens) (UniProt P13945); details: Compound concentration 10.0 uM
Chain of Beta-3 adrenergic receptor (Homo sapiens) (P13945 whole entry, looked up): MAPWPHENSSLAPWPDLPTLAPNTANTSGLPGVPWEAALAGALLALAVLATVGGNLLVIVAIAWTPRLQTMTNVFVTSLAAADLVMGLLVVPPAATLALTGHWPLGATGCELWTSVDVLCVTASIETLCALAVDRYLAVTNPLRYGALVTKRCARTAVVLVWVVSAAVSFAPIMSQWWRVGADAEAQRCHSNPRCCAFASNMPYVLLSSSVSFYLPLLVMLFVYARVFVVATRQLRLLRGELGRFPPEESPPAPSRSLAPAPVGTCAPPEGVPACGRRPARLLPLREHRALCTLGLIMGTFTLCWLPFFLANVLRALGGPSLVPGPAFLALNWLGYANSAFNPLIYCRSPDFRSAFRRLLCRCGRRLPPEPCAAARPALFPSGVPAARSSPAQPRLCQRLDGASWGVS

[65] = target: E3 ubiquitin-protein ligase TRIM33 (Homo sapiens, UniProt Q9UPN9); assay: TRIM33 (TIF1gamma) (PHD & BD) DiscoverX BROMOscan
[66] = target: 5-hydroxytryptamine receptor 1B (Homo sapiens) (UniProt P28222); details: Compound concentration 10.0 uM
[67] = target: Nucleosome-remodeling factor subunit BPTF (Homo sapiens, UniProt Q12830); assay: FALZ DiscoverX BROMOscan
[68] = target: Bromodomain-containing protein 7 (Homo sapiens, UniProt Q9NPI1); assay: BRD7 DiscoverX BROMOscan
[69] = target: T5, Bromodomain-containing protein 8; assay: BRD8 (BD1) DiscoverX BROMOscan
[70] = target: Muscarinic acetylcholine receptor M4 (Homo sapiens) (UniProt P08173); details: Compound concentration 10.0 uM

Cc1cc2c(-c3ccco3)cnc(N[C@@H]3CCN(C)C[C@H]3C(=O)NC3CCCCC3)c2[nH]c1=O [GSK789]
inhibition [1]: -6.42%
inhibition [2]: -4.38%
inhibition [3]: -0.72%
inhibition [4]: 27.3%
IC50 [5]: 3.55 µM (active)
inhibition [6]: 19.8%
IC50 [7]: 0.125 µM (active)
Kd [8]: 31.6 µM
IC50 [9]: 0.258 µM (active)
inhibition [10]: 30.5%
Kd [11]: 31.6 µM
IC50 [12]: 0.87 µM (active)
Kd [13]: 31.6 µM
Kd [14]: 0.1 µM
pIC50 [15]: 4.7
pIC50 [16]: 7
inhibition [17]: 17.3%
Kd [18]: 31.6 µM
inhibition [19]: 17.7%
inhibition [20]: -5.01%
inhibition [21]: 24.1%
Kd [22]: 31.6 µM
inhibition [23]: 3.9%
inhibition [24]: -9.93%
Kd [25]: 31.6 µM
IC50 [26]: 0.39 µM (active)
Kd [27]: 31.6 µM
Kd [28]: 25.1 µM
inhibition [29]: 28.5%
pIC50 [30]: 4.9
inhibition [31]: 33.2%
inhibition [32]: 0.27%
inhibition [33]: 14%
inhibition [34]: 15.9%
Kd [35]: 31.6 µM
inhibition [36]: -3.97%
pIC50 [37]: 4.7
pIC50 [38]: 6.8
Ki ([39]; read-out: Ki): 1.01 µM
Ki ([39]; read-out: pKi (converted)): 1.01 µM
inhibition [40]: 97.9%
Kd [41]: 31.6 µM
IC50 [42]: 0.67 µM (active)
Kd [43]: 31.6 µM
Kd [44]: 31.6 µM
inhibition [45]: 14.8%
Kd [46]: 31.6 µM
inhibition [47]: 1.68%
inhibition [48]: 25.2%
Kd [49]: 31.6 µM
Kd [50]: 31.6 µM
inhibition [51]: 9.01%
inhibition [52]: 11.8%
pIC50 [53]: 6.2
inhibition [54]: 36.6%
inhibition [55]: -1.12%
inhibition [56]: 31.8%
inhibition [57]: -9.42%
inhibition [58]: 9.26%
inhibition [59]: 16.3%
inhibition [60]: 8.58%
Kd [61]: 31.6 µM
inhibition [62]: -0.37%
inhibition [63]: 24.7%
inhibition [64]: 13.8%
Kd [65]: 31.6 µM
inhibition [66]: 3.37%
Kd [67]: 31.6 µM
Kd [68]: 25.1 µM
Kd [69]: 31.6 µM
inhibition [70]: 17.1%
